Results taken from patent US8389535B2, “L-methylfolate treatment for psychiatric or neurologic disorders” (priority 2010, dated 2013).

Experiments:
[1] = cited from earlier work
[2] = system: patients with an autism spectrum disorder or an attention deficit disorder
Procedure: The patient is dosed with L-methylfolate orally once a day according to preparations available. The patient takes the medication at the same time of day and with a snack or meal. The patient is initially dosed with L-methylfolate according to weight as follows: • 25-45 lbs (11-20 kg): 2.5 mg • 46-60 lbs (21-27 kg): 5 mg • 61-90 lbs (28-41 kg): 7.5 mg • 91+ lbs (42+kg): 7.5-15 mg Dose Modifications and Duration of Therapy
L-methylfolate is administered in doses and forms appropriate for age. L-methylfolate is titrated upward as indicated by behavior improvement according to the results from the screens. Titration may occur from week 1 through 30 days as indicated by the physician. From 30 days to 90 days, the achieved dose at 30 days is maintained until 90 days to observe for tolerance to drug, side effects. During this time, if the child is not weaned from stimulant medications, attempts are made to lower the stimulant as tolerated and discontinue stimulants if at all possible.
In implementing therapy the first consideration is the presence of clinical signs consistent with previous or current diagnosis of an autism spectrum disorder or an attention deficit disorder. […] The established diagnosis was not a sole indicator for therapy.
Second, a review of the family history is necessary. […] Parents were questioned about the presence of ADHD or autism spectrum disorders in the immediate family or extended family. Of particular interest was the presence of other neuropsychiatric conditions, such as depression, anxiety, and bipolar disorder. Parents also were queried regarding the presence of heart disease, difficulties with pregnancy due infertility or miscarriages, leukemia, gastric and colon cancers, breast cancer and stroke. In elderly members of the family, the occurrence of dementia, Alzheimer's, and Parkinson's was also discussed. The above diseases have also been associated to varying degrees with the methylenetetrahydrofolate reductase defect.
Third, blood samples were collected and evaluated. The laboratory exams completed on the blood samples were: a complete blood count with differential, serum folate, serum B12, and serum homocysteine. The tests were performed to establish a baseline for red cell morphology while evaluating for any pre-existing pathologies related to anemia, leukemia, or other blood dycrasias. Serum folate and B12 have been implicated in certain pathologies of the red blood cell and are critical components in folate metabolism. Vitamin B12 in the range of 400 pg/ml or less has been associated with neuropsychiatric sequelae in 5-10% of population. (Quest Labs) Finally, elevated homocysteine levels in the serum have been associated with various disease states, particularly in the presence of the methylenetetrahydrofolate reductase gene polymorphisms. […] However, a few researchers have been able to evaluate severely compromised children.
Fourth, serum was evaluated for the presence of methylenetetrahydrofolate reductase polymorphisms as a predictor of condition severity and response to therapy. Given the expense of these analyses, it was decided to delay evaluation of the serum for the polymorphisms until a clinic response was determined.
In a preliminary trial, nineteen patients, ages 4-43 years, (3 female, 16 male) were randomly selected over the course of three months. Patients were permitted to remain on current medication or supplemental, i.e., fish oil and vitamins, therapies at parental request.

[3] = system: CP-450 system; conditions: cited from earlier work
[4] = via the kidneys; cited from earlier work
[5] = as a medical food or other suitable formulation; cited from earlier work
[6] = of the 14 patients, parental report

Structure (SMILES)	side effect, anecdotal report ([1]; one patient, dose increased to 1 mg/kg/d)	response to therapy as indicated by parents' correspondence and office visits ([2]; 14 remaining of 19 patients, ages 4-43 years, oral once daily, dose by weight 2.5-15 mg, more stable mood, increased attentiveness, improved sleep hygiene)	patients with intermediate responses [2, 6]	patients with significant improvements [2, 6]	side effects ([2]; preliminary experience)	time course of initial improvement ([2]; preliminary trial)	clinical response in patients negative for MTHFR gene polymorphisms ([2]; two children, parental reports)	response in patients positive for MTHFR gene polymorphisms ([2]; two of four patients with MTHFR analyses)	allergic reactions ([1]; oral use)	effect on CP-450 system [3]	excretion [4]	blood brain barrier crossing [5]
Nc1nc(=O)c2c([nH]1)NCC(CNc1ccc(C(=O)N[C@@H](CCC(=O)O)C(=O)O)cc1)N2C=O (mixture of isomers) [folinic acid]	worsening of behavior symptoms	–	–	–	–	–	–	–	–	–	–	–
CN1c2c(nc(N)[nH]c2=O)NC[C@@H]1CNc1ccc(C(=O)N[C@@H](CCC(=O)O)C(=O)O)cc1 [L-methylfolate, 6(S)-5-methyltetrahydrofolate]	–	all have had a response to therapy	two	12	No side effects have been reported	3-5 days, two weeks, or 4-6 weeks	responding clinically	positive response to therapy	Allergic reactions have been documented	does not affect CP-450 system	rapidly excreted via the kidneys	crosses the blood brain barrier
